Reference: US20220264883A1, “IMIDAZOTHIAZOLE COMPOUNDS AND METHODS FOR TREATING PLANT NEMATODE INFECTIONS” (The Governing Council of the University of Toronto, priority 2019, published 2022)

Assays:
C57BL/6 mice = test: Mouse studies (oral dosing, pathologies); assay type: in vivo; settings: oral dose 50 mg/kg over several days
Method: Female C57BL/6 mice (bred in house, breeding pairs originally purchased from Charles River, Canada) 6-8 weeks of age were used for all experiments. Animal experiments were approved by the University of Calgary's Animal Care Committee. Infected mice were orally gavaged with a 200 third stage Heligmosomoides polygyrus larvae (maintained in house. Original stock was a gift from Dr. Allen Shostak, University of Alberta, Canada) and euthanized on day 22 post infection. […] Mice were treated orally with 5 daily doses of exemplary compound Ia (50 mg/kg resuspended in DMSO). Control mice were given DMSO only as a control.

HEK293 cells = test: HEK cell culture and dose-response experiments; assay type: cell-based, Human; settings: non-target system; 48 hours, CellTiter-Blue
Method: HEK293 cells were seeded into 96-well plates, at 5000 cells per well, in 100 μL total volumes of DMEM/10% FBS/1% PS media and grown overnight at 37° C. in the presence of 5% CO2. Compounds (0.5 μL volumes from appropriate source plates) were then added to cells, and growth was continued for an additional 48 hours. Following growth, 10 μL of CellTiter-Blue Viability reagent (Promega) was added to each well, and plates were incubated for an additional 4 hours at 37° C. in the presence of 5% CO2. Fluorescence measurements (560 nm excitation/590 nm emission) were then performed using a CLARIOstar Plate Reader (BMG Labtech) to quantify reagent reduction and estimate cell viability.

M. incognita = test: Meloidogyne incognita infectivity assays (tomato roots in soil); assay type: in vivo; settings: 45 μM in soil, 8 weeks, eggs per mg root relative to DMSO control
Method: An M. incognita population originally collected from grape (Vitis vinifera) in Parlier, Calif., was used for all experiments, and they were maintained on tomato plants (Solanum lycopersicum ‘Rutgers’) as previously described^73. Infective J2 juveniles were collected as described in^73. For the infectivity assays, 90 grams of soil (1:1 sand:loam mix) was added to each cell of several 6-cell plastic garden packs. The soil was drenched with 18 mL of deionized water containing dissolved chemical or DMSO alone. 2,500 infective J2 juveniles were then added to the soil in 2 mL of deionized water, for a total water volume of 20 mL. The final concentration of the chemicals in water was 45 μM. The DMSO concentration varied from 0.1% to 0.8% (v/v) depending on the stock concentration of the chemical. The highest DMSO concentration was used as the DMSO control. The J2s were incubated in the soil and chemical for 24 hours, after which two- to three-week old tomato seedlings were transplanted into the soil (one plant per cell). Two replicates were performed for each chemical treatment, and four replicates were done for the DMSO controls. The whole experiment was replicated twice, in two different batches on two different days, for a total of four replicates for each chemical treatment, and eight replicates for the DMSO controls. Inoculated plants were grown for 8 weeks in a greenhouse, as described^73, under long-day conditions (16-h photoperiod) with 26/18° C. day/night temperatures. After 8 weeks, the plants were destructively harvested. The tops were removed and discarded, and roots were gently washed with water to remove adhering soil. Eggs were extracted by placing rinsed roots in 0.6% sodium hypochlorite and agitating at 300 rpm for 3 min. Roots were then rinsed over nested 250- and 25.4-μm sieves, with eggs collected from the latter and suspended in water. Roots were dried in a 65° C. oven for at least 24 hours, after which dry roots were weighed. The number of eggs from each plant root was counted on a dissection microscope using a haemocytometer, and the number of eggs per milligram of root was calculated by dividing the total egg number by the mass of the dried root material. An average was taken across the replicates performed on the same day, and then normalized to the DMSO control average. To calculate percent effectiveness at inhibiting reproduction, the normalized values were subtracted from 1, and then multiplied by 100. An average percent effectiveness value was then calculated across the two different batches carried out on different days.

Arabidopsis thaliana = Arabidopsis thaliana greening experiments; assay type: in vivo; settings: 5, 15 and 45 micromolar, greening after 4 days
Method: Greening experiments were performed with Arabidopsis thaliana seeds of wild type Col-0; seeds were surface sterilized in bleach and plated onto 0.5×MS, 0.5% sucrose agar medium supplemented with compounds of interest at 5, 15 and 45 μM concentrations. After 4 d of stratification at 4° C., plates were transferred to a growth chamber (16 h/8 h, 150 μE/m^2) and greening recorded after 4 days. Pictures were recorded by camera (SONY a7s) with FE1.8/55 lens (FE 55 mm F1.8 ZA; SEL55F18Z). Experiments were performed in triplicate for each treatment.

M. chitwoodi = test: Meloidogyne chitwoodi infectivity assays (tomato roots in soil); assay type: in vivo; settings: 45 μM in soil, 8 weeks, egg counts relative to DMSO control
Method: An M. incognita population originally collected from grape (Vitis vinifera) in Parlier, Calif., was used for all experiments, and they were maintained on tomato plants (Solanum lycopersicum ‘Rutgers’) as previously described^73. Infective J2 juveniles were collected as described in^73. For the infectivity assays, 90 grams of soil (1:1 sand:loam mix) was added to each cell of several 6-cell plastic garden packs. The soil was drenched with 18 mL of deionized water containing dissolved chemical or DMSO alone. 2,500 infective J2 juveniles were then added to the soil in 2 mL of deionized water, for a total water volume of 20 mL. The final concentration of the chemicals in water was 45 μM. The DMSO concentration varied from 0.1% to 0.8% (v/v) depending on the stock concentration of the chemical. The highest DMSO concentration was used as the DMSO control. The J2s were incubated in the soil and chemical for 24 hours, after which two- to three-week old tomato seedlings were transplanted into the soil (one plant per cell). […] The number of eggs from each plant root was counted on a dissection microscope using a haemocytometer, and the number of eggs per milligram of root was calculated by dividing the total egg number by the mass of the dried root material. […] An average percent effectiveness value was then calculated across the two different batches carried out on different days. […]

M. chitwoodi J2 larvae = test: Meloidogyne chitwoodi in vitro assays (J2 movement); assay type: in vivo; settings: 45 μM, 2 days, relative to DMSO control
Method: M. incognita (Kofoid & White) Chitwood Race 1 (originally isolated in Maryland) was used for all experiments, and was maintained on pepper (Capsicum annuum L.) cv. PA-136 in a greenhouse as previously described^64. Infective J2 juveniles were collected as described in ref.65. The microwell dose-response experiments were carried out similarly to previously described protocols^64, 66. In brief, 100 J2s, in 10 μL of deionized water, were added to the wells of 96-well polystyrene plates, after which 190 μL of deionized water containing dissolved chemical, or DMSO alone, was added to each well. The chemicals were tested at 45 μM, and the final concentration of DMSO in each well was 0.5% (v/v). The wells were covered with a plastic adhesive strip, and the lids of the plates were sealed with parafilm. The plates were incubated at 25° C. The mobile fraction of worms was quantified by counting the number of mobile and immobile worms after 2 days of incubation, and then dividing the number of mobile worms by the total number of worms in the well. Three technical replicates were performed for each treatment, and an average value for the mobile fraction of worms was calculated across the three replicates. The percent effectiveness at inhibiting nematode movement was calculated by dividing the average value for the chemical treatment by the average value for the DMSO control, then subtracting this value from 1, and then multiplying by 100.
M. chitwoodi race 1 (the strain commonly found in the pacific northwest of the United States) was used for all experiments, and was maintained on tomato plants (Solanum lycopersicum ‘Rutgers’) as previously described^73. The M. chitwoodi in vitro assays were performed identically to the M. incognita in vitro assays (see above).

Compound	obvious pathologies in comparison with the solvent control (C57BL/6 mice)	HEK Cells LC50 (HEK293 cells)	% effectiveness at inhibiting reproduction of M. incognita (M. incognita)	effect on health and greening of Arabidopsis thaliana plants (phytotoxicity) (Arabidopsis thaliana)	% effectiveness at inhibiting reproduction of M. chitwoodi (M. chitwoodi)	% effectiveness at reducing M. chitwoodi movement (M. chitwoodi J2 larvae)
Clc1ccc(-c2cn3ccsc3n2)cc1 [Ia]	did not exhibit any obvious pathologies	inactive	27.1%	some phytotoxicity and yellowing at the highest concentration	42.6%	–
Fc1ccc(-c2cn3ccsc3n2)cc1 [Ib]	–	–	–	–	–	37.5%
Cc1csc2nc(-c3ccccc3)cn12 [Compound Ie]	–	–	–	–	–	24.3%
